From ChEMBL document CHEMBL1201862, “PubChem BioAssay data set” (2004)
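Assay format: 96-well plates, 48-hour exposure. The concentration for 50% growth inhibition is given as GI50.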 Calls of active or inactive are those of the source. Cut-off read from the data, not from the text of the source: active = GI50 up to about 1.1 µM and inactive = higher.

Assays:
Assay in all cases: growth of human tumour cells (NCI), 48 h
ACHN = test system: ACHN
CAKI-1 = test system: CAKI-1
CCRF-CEM = test system: CCRF-CEM
HCT-116 = test system: HCT-116
HL-60 = test system: HL-60
HOP-92 = test system: HOP-92
M14 = test system: M14
MOLT-4 = test system: MOLT-4
NCI-H226 = test system: NCI-H226
OVCAR-4 = test system: OVCAR-4
RXF 393 = test system: RXF 393
SF-295 = test system: SF-295
SK-MEL-5 = test system: SK-MEL-5
SN12C = test system: SN12C
UACC-62 = test system: UACC-62
K562 = test system: K562
SR = test system: SR
U-251 = test system: U-251

Row | Compound | GI50 (ACHN) | GI50 (CAKI-1) | GI50 (CCRF-CEM) | GI50 (HCT-116) | GI50 (HL-60) | GI50 (HOP-92) | GI50 (M14) | GI50 (MOLT-4) | GI50 (NCI-H226) | GI50 (OVCAR-4) | GI50 (RXF 393) | GI50 (SF-295) | GI50 (SK-MEL-5) | GI50 (SN12C) | GI50 (UACC-62) | GI50 (K562) | GI50 (SR) | GI50 (U-251)
1 | CC(C)(C)OC(=O)N[C@H]1CC(=O)c2ccccc2N(CC(=O)O)C1=O | > 100 µM (inactive) | > 100 µM (inactive) | > 100 µM (inactive) | 26.5 µM (inactive) | > 100 µM (inactive) | > 100 µM (inactive) | > 100 µM (inactive) | > 100 µM (inactive) | > 100 µM (inactive) | > 100 µM (inactive) | > 100 µM (inactive) | > 100 µM (inactive) | > 100 µM (inactive) | > 100 µM (inactive) | > 100 µM (inactive) | – | – | –
2 | CC(=O)O[C@]12CCC[C@H]1C1(O)C(O)CCC[C@H]12 (stereo partly specified) | > 100 µM (inactive) | – | > 100 µM (inactive) | > 100 µM (inactive) | > 100 µM (inactive) | – | > 100 µM (inactive) | > 100 µM (inactive) | > 100 µM (inactive) | > 100 µM (inactive) | > 100 µM (inactive) | > 100 µM (inactive) | > 100 µM (inactive) | > 100 µM (inactive) | > 100 µM (inactive) | > 100 µM (inactive) | > 100 µM (inactive) | > 100 µM (inactive)
3 | COC(CN1C=C(Sc2ccccc2)CC1)OC | 34.6 µM (inactive) | 41.4 µM (inactive) | 19.5 µM (inactive) | 29.5 µM (inactive) | 15.6 µM (inactive) | 26.9 µM (inactive) | 33.7 µM (inactive) | 27.2 µM (inactive) | 33.3 µM (inactive) | 34 µM (inactive) | 20.8 µM (inactive) | 19.5 µM (inactive) | 18.9 µM (inactive) | 33.9 µM (inactive) | 31.8 µM (inactive) | 20.7 µM (inactive) | – | –
4 | c1ccc2c(c1)CCC/C2=N\OCC1CO1 (stereo unspecified) | 68.4 µM (inactive) | 36.1 µM (inactive) | 23.2 µM (inactive) | 47.2 µM (inactive) | 28.4 µM (inactive) | 5.77 µM (inactive) | 80.9 µM (inactive) | 49.3 µM (inactive) | – | > 100 µM (inactive) | 31.8 µM (inactive) | 70.1 µM (inactive) | > 100 µM (inactive) | > 100 µM (inactive) | 58.6 µM (inactive) | 43.8 µM (inactive) | – | > 100 µM (inactive)
5 | O=C(CSc1nc(-c2ccccc2)c(-c2ccccc2)[nH]1)NNC(=S)Nc1ccccc1 | 85.1 µM (inactive) | 81.7 µM (inactive) | 39.4 µM (inactive) | 97.1 µM (inactive) | 22.8 µM (inactive) | 36.2 µM (inactive) | 94.6 µM (inactive) | 33.7 µM (inactive) | > 100 µM (inactive) | 64 µM (inactive) | – | 49.9 µM (inactive) | 46.1 µM (inactive) | > 100 µM (inactive) | 0.277 µM (active) | – | 57.5 µM (inactive) | > 100 µM (inactive)
6 | COC(=O)C(Cc1cc(OC)c(OC)c(OC)c1)c1ccc(OC)cc1 (stereo unspecified) | > 100 µM (inactive) | > 100 µM (inactive) | 88.5 µM (inactive) | > 100 µM (inactive) | 95.5 µM (inactive) | 85.9 µM (inactive) | > 100 µM (inactive) | 62.7 µM (inactive) | > 100 µM (inactive) | > 100 µM (inactive) | > 100 µM (inactive) | > 100 µM (inactive) | 45 µM (inactive) | > 100 µM (inactive) | > 100 µM (inactive) | 88.9 µM (inactive) | – | > 100 µM (inactive)
